Measurements published in paper PMC10004634 (PLOS ONE, 2023).
Read-outs that look alike come from different tables or passages of the source.

Columns and labels:
Experiment in all cases: biochemical
Design in all cases: KINOMEscan scanMAX competition binding, DNA-tagged kinases, qPCR read-out, percent control at 300 nM
MAP4K3 = biological target: T1, MAP4K3 (Homo sapiens, UniProt Q8IVH8)
T1 sequence (Q8IVH8 1-894): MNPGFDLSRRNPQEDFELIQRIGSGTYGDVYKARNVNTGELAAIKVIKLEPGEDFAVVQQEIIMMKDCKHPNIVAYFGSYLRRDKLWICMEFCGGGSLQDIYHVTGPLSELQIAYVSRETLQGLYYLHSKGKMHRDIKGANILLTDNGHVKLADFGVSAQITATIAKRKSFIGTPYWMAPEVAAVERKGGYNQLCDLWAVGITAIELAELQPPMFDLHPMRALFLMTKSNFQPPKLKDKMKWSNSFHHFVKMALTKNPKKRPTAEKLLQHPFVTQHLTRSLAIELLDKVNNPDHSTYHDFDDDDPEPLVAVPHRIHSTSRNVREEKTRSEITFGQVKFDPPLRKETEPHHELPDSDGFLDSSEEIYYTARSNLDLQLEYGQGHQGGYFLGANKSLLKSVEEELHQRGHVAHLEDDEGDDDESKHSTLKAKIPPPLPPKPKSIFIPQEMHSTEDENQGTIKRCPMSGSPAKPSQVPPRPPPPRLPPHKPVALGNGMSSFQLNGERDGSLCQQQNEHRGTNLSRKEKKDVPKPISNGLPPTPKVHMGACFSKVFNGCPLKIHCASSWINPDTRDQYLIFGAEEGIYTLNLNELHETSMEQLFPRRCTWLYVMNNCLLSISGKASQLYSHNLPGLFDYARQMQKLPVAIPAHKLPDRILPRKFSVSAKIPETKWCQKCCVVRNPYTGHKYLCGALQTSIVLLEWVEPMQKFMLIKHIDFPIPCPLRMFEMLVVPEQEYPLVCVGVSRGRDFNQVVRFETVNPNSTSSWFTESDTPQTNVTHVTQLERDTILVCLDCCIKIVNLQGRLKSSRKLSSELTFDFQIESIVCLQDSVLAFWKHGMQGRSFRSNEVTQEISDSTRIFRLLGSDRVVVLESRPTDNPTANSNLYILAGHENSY

TYRO3 = biological target: T2, TYRO3 (Homo sapiens, UniProt Q06418)
T2 sequence (Q06418 1-890): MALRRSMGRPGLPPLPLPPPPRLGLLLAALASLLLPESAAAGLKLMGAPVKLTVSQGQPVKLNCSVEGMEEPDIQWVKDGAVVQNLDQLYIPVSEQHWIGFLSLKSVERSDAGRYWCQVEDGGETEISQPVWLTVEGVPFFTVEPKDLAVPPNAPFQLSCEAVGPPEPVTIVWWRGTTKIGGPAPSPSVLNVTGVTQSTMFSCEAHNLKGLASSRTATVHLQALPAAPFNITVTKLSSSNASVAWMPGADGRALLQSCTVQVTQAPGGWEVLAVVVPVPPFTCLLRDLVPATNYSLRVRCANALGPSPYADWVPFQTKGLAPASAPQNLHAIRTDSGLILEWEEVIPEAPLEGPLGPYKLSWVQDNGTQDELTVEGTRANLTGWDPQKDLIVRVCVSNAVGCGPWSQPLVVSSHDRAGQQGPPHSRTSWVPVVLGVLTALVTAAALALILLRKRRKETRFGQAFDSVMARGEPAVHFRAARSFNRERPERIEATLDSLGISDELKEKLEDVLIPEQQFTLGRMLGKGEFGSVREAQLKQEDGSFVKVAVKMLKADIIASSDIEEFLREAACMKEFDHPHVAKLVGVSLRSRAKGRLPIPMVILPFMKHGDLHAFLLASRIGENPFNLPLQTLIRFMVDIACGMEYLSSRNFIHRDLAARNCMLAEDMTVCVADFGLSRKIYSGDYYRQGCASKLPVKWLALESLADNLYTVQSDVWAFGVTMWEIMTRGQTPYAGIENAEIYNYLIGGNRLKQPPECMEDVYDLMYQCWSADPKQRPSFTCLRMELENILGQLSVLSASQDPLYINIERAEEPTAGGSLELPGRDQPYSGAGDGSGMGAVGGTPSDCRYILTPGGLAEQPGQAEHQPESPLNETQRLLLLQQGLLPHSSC

FLT3(R834Q) = biological target: T3, FLT3(R834Q) (Homo sapiens, UniProt P36888, R834Q)
T3 sequence (P36888 1-993 R834Q): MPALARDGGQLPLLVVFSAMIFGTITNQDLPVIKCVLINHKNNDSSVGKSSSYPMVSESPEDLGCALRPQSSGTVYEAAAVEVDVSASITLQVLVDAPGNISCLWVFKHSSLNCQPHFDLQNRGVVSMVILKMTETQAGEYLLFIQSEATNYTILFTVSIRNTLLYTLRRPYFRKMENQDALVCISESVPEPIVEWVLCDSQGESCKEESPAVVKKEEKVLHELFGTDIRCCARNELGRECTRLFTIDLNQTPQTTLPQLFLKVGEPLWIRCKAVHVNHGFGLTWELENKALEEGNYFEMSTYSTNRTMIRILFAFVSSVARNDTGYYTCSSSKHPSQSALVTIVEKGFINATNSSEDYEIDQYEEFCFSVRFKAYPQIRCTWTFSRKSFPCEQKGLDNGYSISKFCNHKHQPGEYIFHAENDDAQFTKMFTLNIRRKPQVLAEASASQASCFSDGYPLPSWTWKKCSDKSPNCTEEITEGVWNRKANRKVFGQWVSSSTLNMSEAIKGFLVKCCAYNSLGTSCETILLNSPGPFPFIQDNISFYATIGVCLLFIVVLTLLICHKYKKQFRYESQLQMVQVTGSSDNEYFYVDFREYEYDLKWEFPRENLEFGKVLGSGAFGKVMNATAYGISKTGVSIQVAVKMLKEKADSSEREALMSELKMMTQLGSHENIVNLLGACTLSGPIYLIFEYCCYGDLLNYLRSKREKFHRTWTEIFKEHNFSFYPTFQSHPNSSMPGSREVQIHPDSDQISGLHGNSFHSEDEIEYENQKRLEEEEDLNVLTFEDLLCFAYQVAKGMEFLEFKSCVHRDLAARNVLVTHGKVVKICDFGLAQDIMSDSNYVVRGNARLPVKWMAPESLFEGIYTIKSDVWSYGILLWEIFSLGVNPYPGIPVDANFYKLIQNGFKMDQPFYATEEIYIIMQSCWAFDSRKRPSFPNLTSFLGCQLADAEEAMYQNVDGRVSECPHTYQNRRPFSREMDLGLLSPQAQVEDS

TRKB = biological target: T4, TRKB (Homo sapiens, UniProt Q16620)
T4 construct: gene NTRK2

[1] = read-out: Percent control / Ibrutinib
[2] = read-out: Percent control / Tirabrutinib
[3] = read-out: Percent control / Zanubrutinib

T4 sequence (Q16620 whole entry): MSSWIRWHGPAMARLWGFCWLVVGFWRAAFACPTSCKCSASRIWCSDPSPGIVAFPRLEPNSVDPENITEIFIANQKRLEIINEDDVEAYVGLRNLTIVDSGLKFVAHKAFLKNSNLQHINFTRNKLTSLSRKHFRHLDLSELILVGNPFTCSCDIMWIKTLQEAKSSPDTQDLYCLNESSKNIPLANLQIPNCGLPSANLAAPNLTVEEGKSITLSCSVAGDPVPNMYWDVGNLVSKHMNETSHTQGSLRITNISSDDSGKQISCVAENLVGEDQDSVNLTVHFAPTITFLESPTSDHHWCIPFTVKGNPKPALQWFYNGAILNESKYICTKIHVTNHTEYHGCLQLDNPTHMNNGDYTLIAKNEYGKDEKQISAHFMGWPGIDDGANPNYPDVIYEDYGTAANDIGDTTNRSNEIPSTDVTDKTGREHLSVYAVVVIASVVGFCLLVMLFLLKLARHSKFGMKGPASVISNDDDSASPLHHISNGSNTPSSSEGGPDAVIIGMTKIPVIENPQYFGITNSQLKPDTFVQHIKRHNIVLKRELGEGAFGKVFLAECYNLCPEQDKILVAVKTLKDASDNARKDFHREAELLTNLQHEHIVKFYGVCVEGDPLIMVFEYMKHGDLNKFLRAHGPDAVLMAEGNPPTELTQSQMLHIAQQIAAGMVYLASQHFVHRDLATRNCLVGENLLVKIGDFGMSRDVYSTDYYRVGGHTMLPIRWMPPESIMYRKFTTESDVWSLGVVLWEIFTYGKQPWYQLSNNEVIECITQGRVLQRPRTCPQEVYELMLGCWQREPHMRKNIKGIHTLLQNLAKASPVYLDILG

Work on CC#CC(=O)N1CCC[C@H]1c1nc(-c2ccc(C(=O)Nc3ccccn3)cc2)c2c(N)nccn12 [Acalabrutinib] yielded a remaining binding at 0.3 µM (MAP4K3; read-out: Percent control / Acalabrutinib) of 94%.

C=CC(=O)N1CCC[C@@H](n2nc(-c3ccc(Oc4ccccc4)cc3)c3c(N)ncnc32)C1 [Ibrutinib] was tested, and the remaining binding at 0.3 µM (MAP4K3; [1]) was 89%, the remaining binding at 0.3 µM (TYRO3; [1]) was 61% and the remaining binding at 0.3 µM (FLT3(R834Q); [1]) was 55%. For the same compound, the remaining binding at 0.3 µM (TRKB; [1]) was 76%.

CC#CC(=O)N1CC[C@@H](n2c(=O)n(-c3ccc(Oc4ccccc4)cc3)c3c(N)ncnc32)C1 [Tirabrutinib] showed a remaining binding at 0.3 µM (TYRO3; [2]) of 99%, a remaining binding at 0.3 µM (FLT3(R834Q); [2]) of 81% and a remaining binding at 0.3 µM (TRKB; [2]) of 79%.

Work on C=CC(=O)N1CCC([C@@H]2CCNc3c(C(N)=O)c(-c4ccc(Oc5ccccc5)cc4)nn32)CC1 [Zanubrutinib] yielded a remaining binding at 0.3 µM (MAP4K3; [3]) of 91%, a remaining binding at 0.3 µM (TYRO3; [3]) of 80% and a remaining binding at 0.3 µM (FLT3(R834Q); [3]) of 93%. The remaining binding at 0.3 µM (TRKB; [3]) was 94%.
